Values quoted from earlier work in patent publication US20110190221A1, “MODULATION AND REPLETION/ENHANCEMENT OF THE COMPLEMENT SYSTEM FOR TREATMENT OF TRAUMA” (APELLIS AG, priority 2008, published 2011).

Test system: complement activation
Conditions: relative to compstatin amidated at the C-terminus; based on published data (WO2004/026328, Mallik 2005, Katragadda 2006)

In the case of ICVVQDWGHHRCT [Ac-compstatin], the Activity over compstatin is given as 3 × more.
